Data set [1] deals with neurotensin NTS1 (Homo sapiens, UniProt P30989). In words: Radioligand displacement, [3H]NT(8-13).
Data set [2] has as its target T1, 5-HT1AR wt (Homo sapiens, UniProt P08908).
T1 construct: host or cells: HEK293T, transient; membranes
T1 sequence (P08908 1-422): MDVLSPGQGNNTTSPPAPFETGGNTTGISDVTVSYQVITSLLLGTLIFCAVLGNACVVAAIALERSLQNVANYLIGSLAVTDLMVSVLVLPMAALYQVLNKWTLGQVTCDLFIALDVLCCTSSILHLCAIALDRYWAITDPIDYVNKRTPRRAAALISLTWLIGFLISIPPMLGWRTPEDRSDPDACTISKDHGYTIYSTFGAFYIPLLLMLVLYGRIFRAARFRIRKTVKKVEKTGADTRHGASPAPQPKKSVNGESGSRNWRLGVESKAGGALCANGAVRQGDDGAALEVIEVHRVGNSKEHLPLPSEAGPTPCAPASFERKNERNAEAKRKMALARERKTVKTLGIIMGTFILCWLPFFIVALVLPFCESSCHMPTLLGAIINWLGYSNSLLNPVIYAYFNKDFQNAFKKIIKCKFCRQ
In words: Radioligand competition, displacement of [3H]WAY100635. In kind it is binding.

Data set [3] has as its target α2BR (Homo sapiens, UniProt P18089). In words: BRET Gαi1 activation.
The target of data set [4] is neurotensin NTS2 (Homo sapiens, UniProt O95665). The data set is described as follows: Radioligand displacement, [3H]NT(8-13).
The nature of data set [5]: In vivo pharmacokinetic studies. The following applies: mouse, CSF, ip; male C57BL/6 mice, 10 mg/kg i.p.
For data set [6], the target named is T2, 5-HT1AR F112^3.28W + M92^2.60F (Homo sapiens, UniProt P08908, F112W/M92F).
T2 sequence (P08908 1-422 M92F/F112W): T1 sequence (P08908 1-422) with M92F, F112W
In words: Radioligand competition, displacement of [3H]WAY100635. It is filed as binding. The following applies: 5-HT1AR F112W + M92F; HEK 293T membranes; read-out: Ki [nM ± SEM].

In data set [7] the target is T2, 5-HT1AR F112^3.28W + M92^2.60F. In words: GloSensor cAMP accumulation in HEK293AΔGi/o. It is filed as cell-based. The settings on record: read-out: Emax [% ± SEM], cAMP accumulation.
The target of data set [8] is T3, 5-HT1AR (Homo sapiens, UniProt P08908).
T3 sequence (P08908 1-422): T1 sequence (P08908 1-422)
The data set is described as follows: High-throughput screening with radioligand displacement, single point. It is filed as binding. Set-up: host or cells: HEK293T, transient; membranes. The following applies: compound at 10 nM.

In data set [9] the target is muscarinic M2 (Homo sapiens, UniProt P08172). The data set is described as follows: Radioligand displacement, [3H]NMS.
For data set [10], the target named is T3, 5-HT1AR. The data set is described as follows: β-arrestin 1 recruitment, enhanced bystander BRET in HEK293T with GRK2. The following applies: HEK-293T, read-out: Emax, β-arrestin 1 recruitment.
Data set [11] concerns the target adrenergic α2B (Homo sapiens, UniProt P18089). In words: Radioligand displacement, [3H]RX821002.
Data set [12] deals with muscarinic M1 (Homo sapiens, UniProt P11229). In words: Radioligand displacement, [3H]NMS.
Data set [13] concerns the target orexin OX2 (Homo sapiens, UniProt O43614). The data set is described as follows: Radioligand displacement, [3H]EMPA.
Data set [14] deals with T3, 5-HT1AR. It is filed as cell-based. On the set-up: host or cells: HEK293T, HEK293A, HEK293AΔGs, HEK293AΔGi/o, HEK293AΔARRB1/B2. The following applies: HEK293AΔGi/o, GloSensor.
Data set [15] deals with dopamine D1 (Homo sapiens, UniProt P21728). The data set is described as follows: Radioligand displacement, [3H]SCH23390.
Data set [16] concerns the target T4, 5-HT1AR F112^3.28W (Homo sapiens, UniProt P08908, F112W).
T4 sequence (P08908 1-422 F112W): T1 sequence (P08908 1-422) with F112W
The data set is described as follows: GloSensor cAMP accumulation in HEK293AΔGi/o. The following applies: read-out: Emax [% ± SEM], cAMP accumulation. It is filed as cell-based.

Numbering of substitutions follows the chain as printed. Like-named read-outs stand apart in the source and are kept apart here. A value given as a limit tells only on which side of the number the result lay.

Sequence of neurotensin NTS1 (P30989 whole entry): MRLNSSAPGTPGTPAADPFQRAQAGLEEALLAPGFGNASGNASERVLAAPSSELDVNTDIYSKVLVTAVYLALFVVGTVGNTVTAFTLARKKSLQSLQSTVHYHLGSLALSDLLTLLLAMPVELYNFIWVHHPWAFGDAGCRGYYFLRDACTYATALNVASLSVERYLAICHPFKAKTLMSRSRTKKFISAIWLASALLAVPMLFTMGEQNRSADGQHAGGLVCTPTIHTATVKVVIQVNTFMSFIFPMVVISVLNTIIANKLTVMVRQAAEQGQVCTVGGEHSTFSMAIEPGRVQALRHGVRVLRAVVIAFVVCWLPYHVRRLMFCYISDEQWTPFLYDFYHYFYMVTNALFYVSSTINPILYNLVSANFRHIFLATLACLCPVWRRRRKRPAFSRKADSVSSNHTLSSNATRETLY
Sequence of muscarinic M2 (P08172 whole entry): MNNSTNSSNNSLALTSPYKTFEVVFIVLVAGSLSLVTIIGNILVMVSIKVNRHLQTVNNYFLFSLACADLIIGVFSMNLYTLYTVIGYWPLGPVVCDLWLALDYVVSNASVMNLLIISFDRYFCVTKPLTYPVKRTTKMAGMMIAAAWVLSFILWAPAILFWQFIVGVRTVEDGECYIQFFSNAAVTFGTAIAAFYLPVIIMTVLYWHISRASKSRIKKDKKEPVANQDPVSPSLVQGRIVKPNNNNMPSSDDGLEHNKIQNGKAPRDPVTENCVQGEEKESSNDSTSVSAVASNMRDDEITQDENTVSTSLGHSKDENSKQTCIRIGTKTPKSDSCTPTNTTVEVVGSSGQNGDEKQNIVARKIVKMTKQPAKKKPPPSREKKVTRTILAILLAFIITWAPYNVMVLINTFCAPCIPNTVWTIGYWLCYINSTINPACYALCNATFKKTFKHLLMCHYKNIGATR
Sequence of orexin OX2 (O43614 whole entry): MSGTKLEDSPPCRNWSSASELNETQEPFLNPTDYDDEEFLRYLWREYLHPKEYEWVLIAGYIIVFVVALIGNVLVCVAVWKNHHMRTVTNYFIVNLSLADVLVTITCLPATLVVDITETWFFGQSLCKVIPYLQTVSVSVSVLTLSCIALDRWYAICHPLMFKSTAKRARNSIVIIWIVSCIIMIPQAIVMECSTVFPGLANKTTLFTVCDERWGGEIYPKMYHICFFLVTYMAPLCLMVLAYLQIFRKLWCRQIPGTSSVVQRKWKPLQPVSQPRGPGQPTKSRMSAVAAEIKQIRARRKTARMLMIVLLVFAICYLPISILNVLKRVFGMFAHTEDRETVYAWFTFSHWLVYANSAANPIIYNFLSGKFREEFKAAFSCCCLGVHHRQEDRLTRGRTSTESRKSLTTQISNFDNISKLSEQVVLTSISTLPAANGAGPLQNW
Sequence of adrenergic α2B (P18089 whole entry): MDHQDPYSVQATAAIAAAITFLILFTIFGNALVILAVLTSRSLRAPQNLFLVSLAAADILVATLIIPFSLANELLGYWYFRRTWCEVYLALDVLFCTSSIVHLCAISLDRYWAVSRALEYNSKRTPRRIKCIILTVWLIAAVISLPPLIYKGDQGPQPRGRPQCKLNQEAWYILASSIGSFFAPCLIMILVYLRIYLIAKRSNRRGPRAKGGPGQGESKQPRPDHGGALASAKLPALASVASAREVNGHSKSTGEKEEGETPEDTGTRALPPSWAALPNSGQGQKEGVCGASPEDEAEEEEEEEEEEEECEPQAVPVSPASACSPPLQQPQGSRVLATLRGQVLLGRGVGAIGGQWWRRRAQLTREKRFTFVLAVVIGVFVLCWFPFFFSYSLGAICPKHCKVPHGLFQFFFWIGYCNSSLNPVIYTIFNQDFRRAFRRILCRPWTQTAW
Sequence of neurotensin NTS2 (O95665 whole entry): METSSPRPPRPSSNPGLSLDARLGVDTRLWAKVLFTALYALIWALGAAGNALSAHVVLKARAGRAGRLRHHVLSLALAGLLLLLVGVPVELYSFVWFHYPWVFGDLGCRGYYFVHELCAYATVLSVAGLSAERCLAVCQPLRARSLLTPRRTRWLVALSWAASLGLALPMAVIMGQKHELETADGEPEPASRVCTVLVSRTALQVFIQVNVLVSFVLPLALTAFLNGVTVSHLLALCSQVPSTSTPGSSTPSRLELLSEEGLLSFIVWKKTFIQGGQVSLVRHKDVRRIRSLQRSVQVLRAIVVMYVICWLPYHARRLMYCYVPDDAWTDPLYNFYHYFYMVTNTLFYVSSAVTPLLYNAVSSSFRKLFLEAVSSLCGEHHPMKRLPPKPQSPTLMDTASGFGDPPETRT
Sequence of dopamine D1 (P21728 whole entry): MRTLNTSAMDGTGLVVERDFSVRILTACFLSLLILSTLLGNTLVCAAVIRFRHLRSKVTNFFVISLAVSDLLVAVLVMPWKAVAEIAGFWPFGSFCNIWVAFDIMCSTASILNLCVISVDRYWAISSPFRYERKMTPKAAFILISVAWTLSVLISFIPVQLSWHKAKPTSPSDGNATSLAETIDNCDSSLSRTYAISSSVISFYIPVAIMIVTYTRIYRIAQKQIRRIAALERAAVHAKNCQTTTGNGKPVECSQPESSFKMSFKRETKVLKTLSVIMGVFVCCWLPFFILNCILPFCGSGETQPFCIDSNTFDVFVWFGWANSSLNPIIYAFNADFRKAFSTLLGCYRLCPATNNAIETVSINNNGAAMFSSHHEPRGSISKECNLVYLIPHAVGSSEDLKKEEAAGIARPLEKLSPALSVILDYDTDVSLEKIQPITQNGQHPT
Sequence of muscarinic M1 (P11229 whole entry): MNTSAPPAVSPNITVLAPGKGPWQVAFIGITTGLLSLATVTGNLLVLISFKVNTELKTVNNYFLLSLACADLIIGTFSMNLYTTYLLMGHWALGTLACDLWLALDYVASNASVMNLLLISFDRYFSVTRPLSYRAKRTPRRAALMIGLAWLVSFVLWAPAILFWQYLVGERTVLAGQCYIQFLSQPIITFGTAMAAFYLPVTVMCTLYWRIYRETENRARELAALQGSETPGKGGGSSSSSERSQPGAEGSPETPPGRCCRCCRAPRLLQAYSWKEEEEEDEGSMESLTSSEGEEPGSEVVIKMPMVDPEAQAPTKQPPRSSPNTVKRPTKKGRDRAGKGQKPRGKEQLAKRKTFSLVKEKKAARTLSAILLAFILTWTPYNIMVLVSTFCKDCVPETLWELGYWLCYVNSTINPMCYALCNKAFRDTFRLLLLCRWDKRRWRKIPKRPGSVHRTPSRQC
Sequence of α2BR (P18089 whole entry): as the sequence (P18089 whole entry) above

As for `COc1ccccc1OCCNCCCOc1ccc2c(c1)NC(=O)CO2` [ST171], the Ki is > 50000 nM in data set [1] (Ki [nM ± SD]); > 50100 nM in data set [1] (pKi); 0.369 nM in data set [2] (5-HT1A, read-out: pKi (converted)); 0.41 nM in [2] (5-HT1AR wt, membranes from transiently transfected HEK 293T cells, read-out: Ki [nM ± SEM]); > 50000 nM in data set [4] (Ki [nM ± SD]); > 50100 nM in data set [4] (pKi). Also, the Ki in data set [6] was 0.044 nM; in [9] (Ki [nM ± SD]) it was 18000 ± 9200 nM; in data set [9] (pKi) it was 16300 nM; in data set [11] (Ki [nM ± SD]), 110 ± 60 nM; in [11] (pKi), 103 nM; in [12] (Ki [nM ± SD]), 10000 ± 920 nM. For the same molecule, the Ki is 10300 nM in data set [12] (pKi); > 50000 nM in data set [13] (Ki [nM ± SD]); > 50100 nM in [13] (pKi); 260 ± 170 nM in [15] (Ki [nM ± SD]); 209 nM in [15] (pKi). For the same molecule, the intrinsic activity result in data set [3] is on record as “devoid of intrinsic activity”. The highest concentration (Cmax) in [5] was ~40 nM. The Emax in [7], in data set [10] and in data set [16] was < 5% throughout. Further, the “displacement of the radiolabeled ligand [3H]WAY100,635” value in [8] was “more than 80%”. Further, inhibition in [14] was half-maximal at 3.9 ± 0.8 nM (IC50).

The record behind these values is PMC12175894 (Science Advances, 2025).
